These are literature values, as cited in US7276228B2, “Methods for treating hematological disorders through inhibition of DNA methylation and histone deacetylase” (SuperGen, Inc., priority 2001, dated 2007).

In one data set the test system is HDAC. The settings on record: for concentration at which HDAC activity is inhibited: literature statements.
The test system of a further data set is mammalian HDAC. To be noted: Yoshida et al. (1990).
A further data set concerns DNA methyltransferase. The settings on record: decitabine replacing 5-methylcytosine at a site of methylation in DNA; Juttermann et al. (1994).

Consider `O=C(/C=C/c1cccc(C(=O)NO)c1)NO` [CBHA, m-carboxy-cinnamic acid bishydroxamic acid], for which the “concentration at which HDAC is inhibited” value in the data set with HDAC (in vitro or in vivo, Glick et al. (1999)) is given as “micromolar concentration or lower”. For the compound `C/C=C1\NC(=O)[C@H]2CSSCC/C=C/[C@H](CC(=O)N[C@H](C(C)C)C(=O)N2)OC(=O)[C@H](C(C)C)NC1=O` [FR901228], in the data set on HDAC, the “concentration at which HDAC activity is inhibited” value is on record as “micromolar concentrations”.

As to `CC(/C=C/C(=O)NO)=C\[C@@H](C)C(=O)c1ccc(N(C)C)cc1` [TSA, trichostatin A], the “inhibition of mammalian HDAC” value in the data set on mammalian HDAC is reported as “potent inhibitor”. As for `Nc1ncn([C@H]2C[C@H](O)[C@@H](CO)O2)c(=O)n1` [decitabine, 5-aza-2′-deoxycytidine], the “inactivation of DNA methyltransferase” value with DNA methyltransferase was “irreversible inactivation”. As for depudecin, in the data set with HDAC, the “concentration at which HDAC activity is inhibited” value is “micromolar concentrations”.
